Columns and labels:
[1] = test system: adriamycin-resistant subline Mam16C/ADR; assay: In vivo antitumor assay, Mam16C/ADR; parameters: species or system mouse; details: drug route iv, qd 1 bid 2,3
Description: (§1) Mice: Inbred: C3H/He and NCR-nu; and Hybrids: B6D2Fl (C57BL/6 females X DBA/2 males, CD2Fl (Balb/c females X DBS/2 males) and B6x C3fl (C57BL/6 x C3H) were bred at Wayne State University from strained obtained from the Frederick Cancer Research Facility, Frederick, Md. or purchased from commercial suppliers.
(§2) Tumors: Murine Tumor: P388 and an adriamycin-resistant (ADR) subline P388/ADR leukemia and the following transplantable solid tumors of mice were used for in Vivo testing: B16 melanoma (B16), pancreatic ductal adenocarcinoma No. 03 (Panc 03), colon adenocarcinoma No. 38 (colo 38), mammary ductal adenocarcinoma No. 16/C (Mam16) and an adriamycin-resistantsubline Mam16C/ADR. […]
(§3) Quantitative end points used assess antitumor activity included % Increased Life Span (% ILS), Tumor Cell Kill (Log10 kill), and Tumor Growth Inhibition (T/C). […]
(§4) Tumors were measured with a caliper once or twice weekly (as needed) until either tumors exceeded 1600 mg or cure was assured. […] When the control group tumors reached approximately 750-1500 mg in size (median of group), the median tumor weight of each group was determined (including zeros). […] The % T/C was calculated from the following formula for solid murine tumor models: [formula] where T and C are median tumor weights of the treatment and control groups, respectively. […]

[2] = In vivo antitumor assay, Mam16C/ADR; parameters: species or system mouse; details: mouse, in vivo, drug route iv, qd 1 bid 2,3
Description: as §1, §2, §3, §4

Q: For `Cc1cc(-c2c(F)cc3c(=O)c(Cc4c(O)cccc4O)cn(C4CC4)c3c2F)cc(C)n1` [Example 26, 1-Cyclopropyl-6,8-difluoro-7-[2,6-dimethyl-4-pyridinyl]-3-[2,6-dihydroxyphenylmethyl]-1,4-dihydroquinoline-4-one], which T/C % [1] is on record?
A: 71%

Q: And the MTD [2]?
A: 30 mg/kg
